Results reported in patent US12415830B2, “Steroid compound, and use thereof and preparation method therefor” (Chengdu Kanghong Pharmaceutical Co Ltd, priority 2019, dated 2025).
pEC50: −log10 of the molar value.

Molecular target: T1, GABAA1 (α1β2γ2) receptor (Homo sapiens, UniProt P14867+P47870)
T1 construct: expressed in transfected cells
Experiment: Patch-clamp electrophysiology on recombinant GABAA1 receptor in HEK293 cells, with 3 μM GABA
Format: cell-based
Details: for Emax at 0.1 µM / Emax at 1 µM / Emax: HEK293; for Emax at 0.1 µM: 0.1 μM compound together with 3 μmol GABA; for Emax at 0.1 µM / Emax at 1 µM: read-out: potency: ratio of the peak current on the GABAA1 receptor to the peak current in 100 μmol GABA; for Emax at 1 µM: 1 μM compound together with 3 μmol GABA; for Emax / pEC50: together with 3 μmol GABA; for Emax: relative to peak current in 100 μmol GABA
Description: The present invention applies the two subunits of the recombinant GABAA receptor: α1β2γ2 and α4β3δ to evaluate the potency of the exemplary compounds in vitro by patch-clamp electrophysiology.
Extracellular fluid: 140 mM NaCl, 5 mM CsCl, 2 mM CaCl2·2H2O, 1 mM MgCl2·6H2O, 5 mM HEPES, 10 mM D-Glucose, pH=7.4 (NaOH).
Intracellular fluid: 130 mM CsCl, 0.1 mM CaCl2·H2O, 2 mM MgCl2·6H2O, 1.1 mM EGTA, 5 mM Na2-ATP, 10 mM HEPES, pH=7.2 (CsOH).
The HEK293 cells line stably expressing GABAA (α1β2γ2) receptors was cultured in Dulbecco's Modified Eagle Medium (DMEM) supplemented with 10% fetal bovine serum, 800 μg/mL G418, 200 μg/mL Hygromycin B and 100 μg/mL Zeocin. Cells were grown in a humidified incubator at 37° C. with 5% carbon dioxide.
Before manual patch clamp test, the cells were detached using 0.25%-Trypsin-EDTA solution. Then 8×10^3 cells were plated onto coverslips, and cultured in a 24-well plate (final medium volume: 500 μL) and tested after 18 hours by patch clamp.
Glass pipette (BF 150-86-10, Sutter Instruments) was pulled using a micropipette puller (P97, Sutter Instruments). The glass pipette was manipulated using a micro-manipulator (MP285, Sutter Instruments) under the microscope (IX71, Olympus). After touching the cell, a slight suction was applied to achieve high seal resistance (GQ). Fast capacitance (in pF) compensation was made after achieving high seal, and the membrane was broken. Cell capacitance (in pF) compensation was made from whole-cell capacitance compensation after the whole cell mode was achieved. No leak subtraction was made.
The test and control solutions flowed into a recording chamber mounted on the stage of an inverted microscope via a gravity-fed solution delivery system. During the experiment, solutions were withdrawn from the recording chamber by vacuum aspiration. Each concentration was tested at multiple times. All tests were performed at room temperature.
Whole cell model recorded GABAA1 receptors current experimental protocol was indicated as follows: When sealing, cell was at a holding potential of −70 mV, with gap-free mode to record the peak current. The cell would be applied with 3 μM GABA to active current. After the test articles application for 30 s, each concentration of test articles was applied with 3 μM GABA followed by 2 minutes washout using extracellular solution. Finally, 100 μM GABA was used as a positive control. The data were collected by EPC-10 amplifier and stored in PatchMaster (HEKA) software.
The following criteria are used to determine whether the data is acceptable: • (1) Electrode resistance <5MΩ • (2) Seal resistance >1GΩ • (3) The start of access resistance <15 MΩ • (4) The end of access resistance <15 MΩ • (5) No obvious spontaneous current decay. • (6) No obvious current leakage when the membrane potential is-70 mv. 56.6 Data Analysis
In the detection of GABAA1, the currents of 3 μM GABA and different concentrations of test compounds were respectively normalized to the current of 100 μM GABA
[formula] and then the activation rate corresponding to each concentration was calculated.
[formula] and then the activation rate corresponding to each concentration was calculated. Means, Standard Deviation and Standard Error were calculated for each test group. EC50 value was calculated using nonlinear regression: Y=Bottom+(Top−Bottom)/(1+10^((Log EC50−X)×HillSlope))
To fit data to the concentration-response, EC50 was the concentration giving a half-maximum effect and Hillslope was the Hill coefficient. Curve-fitting and EC50 calculations were performed using Graphpad5.0 software.
Emax is defined as the ratio of the peak current generated on the GABAA1 receptor to the peak current generated only in 100 μmol of GABA and the ratio is multiplied by 100%. The peak current generated on the GABAA1 receptor is that the exemplary compounds act on the GABAA1 receptor together with 3 μmol GABA.

T1 sequence (P14867 28-456): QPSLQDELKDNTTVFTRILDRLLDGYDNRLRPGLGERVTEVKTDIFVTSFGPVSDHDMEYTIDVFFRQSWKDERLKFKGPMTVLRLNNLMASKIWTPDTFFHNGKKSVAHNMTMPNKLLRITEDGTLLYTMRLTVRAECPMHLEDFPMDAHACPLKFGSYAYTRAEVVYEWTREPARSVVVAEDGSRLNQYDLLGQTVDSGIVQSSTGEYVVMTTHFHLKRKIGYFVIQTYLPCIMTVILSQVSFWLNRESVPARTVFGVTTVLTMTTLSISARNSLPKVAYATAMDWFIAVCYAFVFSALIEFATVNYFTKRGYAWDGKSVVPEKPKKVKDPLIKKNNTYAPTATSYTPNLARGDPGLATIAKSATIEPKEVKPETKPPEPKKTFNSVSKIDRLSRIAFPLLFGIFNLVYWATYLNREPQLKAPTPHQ
T1 sequence (P47870 26-512): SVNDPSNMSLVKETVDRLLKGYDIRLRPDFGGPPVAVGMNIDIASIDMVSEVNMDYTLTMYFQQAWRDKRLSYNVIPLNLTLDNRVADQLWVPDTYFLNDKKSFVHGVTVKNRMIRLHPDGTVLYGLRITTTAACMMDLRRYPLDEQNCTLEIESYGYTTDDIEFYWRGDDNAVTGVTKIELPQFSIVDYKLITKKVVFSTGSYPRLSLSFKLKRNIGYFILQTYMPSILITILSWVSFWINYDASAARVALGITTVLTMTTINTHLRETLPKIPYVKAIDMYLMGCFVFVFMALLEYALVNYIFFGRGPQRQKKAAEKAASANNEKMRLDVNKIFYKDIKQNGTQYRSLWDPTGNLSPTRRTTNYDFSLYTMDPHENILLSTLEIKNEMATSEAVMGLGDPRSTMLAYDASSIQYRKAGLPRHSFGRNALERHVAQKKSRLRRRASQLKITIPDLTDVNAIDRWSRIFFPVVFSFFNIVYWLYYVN
T1 sequence (P18507 40-475 partner): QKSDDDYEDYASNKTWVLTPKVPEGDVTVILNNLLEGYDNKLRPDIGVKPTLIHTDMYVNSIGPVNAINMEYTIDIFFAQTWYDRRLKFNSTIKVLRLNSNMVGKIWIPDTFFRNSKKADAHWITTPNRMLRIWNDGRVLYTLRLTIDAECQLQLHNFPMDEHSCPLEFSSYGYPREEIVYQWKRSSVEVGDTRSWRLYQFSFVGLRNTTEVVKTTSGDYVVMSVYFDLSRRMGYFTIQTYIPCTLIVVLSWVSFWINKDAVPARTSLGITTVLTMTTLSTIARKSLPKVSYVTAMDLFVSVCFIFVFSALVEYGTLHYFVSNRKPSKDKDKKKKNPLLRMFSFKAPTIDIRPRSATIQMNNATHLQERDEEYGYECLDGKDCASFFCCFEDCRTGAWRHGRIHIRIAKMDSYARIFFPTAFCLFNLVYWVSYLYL

SMILES	Emax at 0.1 µM	Emax at 1 µM	Emax	pEC50
C[C@]12CC[C@@H](O)C[C@@H]1CC[C@@H]1[C@@H]2CC[C@]2(C)[C@@H](C(=O)Cn3cc(C#N)cn3)CCC[C@@H]12 [KH002]	0 to 20%	60 to 80%	74.6%	6.33
C[C@]12CC[C@@H](O)C[C@@H]1CC[C@@H]1[C@@H]2CC[C@]2(C)[C@@H](C(=O)Cn3ccnn3)CCC[C@@H]12 [KH003]	20 to 40%	60 to 80%	72.8%	6.32
C[C@]12CC[C@@H](O)C[C@@H]1CC[C@@H]1[C@@H]2CC[C@]2(C)[C@@H](C(=O)Cn3cnnn3)CCC[C@@H]12 [KH005]	20 to 40%	60 to 80%		
C[C@]12CC[C@@H](O)C[C@@H]1CC[C@@H]1[C@@H]2CC[C@]2(C)[C@@H](C(=O)Cn3cccn3)CCC[C@@H]12 [KH006]	20 to 40%	40 to 60%		
C[C@]12CC[C@@H](O)C[C@@H]1CC[C@@H]1[C@@H]2CC[C@]2(C)[C@@H](C(=O)Cn3ccnc3)CCC[C@@H]12 [KH007]	0 to 20%	40 to 60%		
C[C@]12CC[C@@H](O)C[C@@H]1CC[C@@H]1[C@@H]2CC[C@]2(C)[C@@H](C(=O)Cn3ccc(C#N)n3)CCC[C@@H]12 [KH008]	20 to 40%	> 80%		
C[C@]12CC[C@@H](O)C[C@@H]1CC[C@@H]1[C@@H]2CC[C@]2(C)[C@@H](C(=O)Cn3ccc4ccccc43)CCC[C@@H]12 [KH009]	20 to 40%	> 80%		
C[C@]12CC[C@@H](O)C[C@@H]1CC[C@@H]1[C@@H]2CC[C@]2(C)[C@@H](C(=O)Cn3cc(C(F)(F)F)cn3)CCC[C@@H]12 [KH010]	0 to 20%	20 to 40%		
C[C@]12CC[C@@H](O)C[C@@H]1CC[C@@H]1[C@@H]2CC[C@]2(C)[C@@H](C(=O)Cn3ncc4ccccc43)CCC[C@@H]12 [KH011]	20 to 40%	60 to 80%		
C[C@]12CC[C@@H](O)C[C@@H]1CC[C@@H]1[C@@H]2CC[C@]2(C)[C@@H](C(=O)Cn3cnc4cncnc43)CCC[C@@H]12 [KH012]	0 to 20%	60 to 80%		
C[C@]12CC[C@@H](O)C[C@@H]1CC[C@@H]1[C@@H]2CC[C@]2(C)[C@@H](C(=O)Cn3cc(Cl)cn3)CCC[C@@H]12 [KH013]	0 to 20%	0 to 20%		
C[C@]12CC[C@@H](O)C[C@@H]1CC[C@@H]1[C@@H]2CC[C@]2(C)[C@@H](C(=O)CO)CCC[C@@H]12 [KH014]	0 to 20%	40 to 60%		
C[C@]12CC[C@@H](O)C[C@@H]1CC[C@@H]1[C@@H]2CC[C@]2(C)[C@@H](C(=O)Cn3cnc4ncnc(Cl)c43)CCC[C@@H]12 [KH015]	0 to 20%	0 to 20%		
C[C@]12CC[C@@H](O)C[C@@H]1CC[C@@H]1[C@@H]2CC[C@]2(C)[C@@H](C(=O)CSc3cccs3)CCC[C@@H]12 [KH016]	0 to 20%	40 to 60%		
COc1ncnc2ncn(CC(=O)[C@H]3CCC[C@H]4[C@@H]5CC[C@H]6C[C@H](O)CC[C@]6(C)[C@H]5CC[C@]34C)c12 [KH017]	0 to 20%	0 to 20%		
Cc1nnn(CC(=O)[C@H]2CCC[C@H]3[C@@H]4CC[C@H]5C[C@H](O)CC[C@]5(C)[C@H]4CC[C@]23C)n1 [KH018]	0 to 20%	20 to 40%		
Cc1nnnn1CC(=O)[C@H]1CCC[C@H]2[C@@H]3CC[C@H]4C[C@H](O)CC[C@]4(C)[C@H]3CC[C@]12C [KH019]	0 to 20%	0 to 20%		
C[C@]12CC[C@@H](O)C[C@@H]1CC[C@@H]1[C@@H]2CC[C@]2(C)[C@@H](C(=O)CN3CC4(COC4)C3)CCC[C@@H]12 [KH020]	0 to 20%	0 to 20%		

SMILES	Emax at 0.1 µM	Emax at 1 µM	Emax	pEC50
CC(=O)[C@H]1CCC[C@H]2[C@@H]3CC[C@H]4C[C@](C)(O)CC[C@]4(C)[C@H]3CC[C@]12C [KH021]	0 to 20%	0 to 20%		
C[C@@]1(O)CC[C@@]2(C)[C@@H](CC[C@@H]3[C@@H]2CC[C@]2(C)[C@@H](C(=O)Cn4cnnn4)CCC[C@@H]32)C1 [KH023]	0 to 20%	0 to 20%		
C[C@@]1(O)CC[C@@]2(C)[C@@H](CC[C@@H]3[C@@H]2CC[C@]2(C)[C@@H](C(=O)Cn4ccc(C#N)n4)CCC[C@@H]32)C1 [KH024]	0 to 20%	40 to 60%		
C[C@@]1(O)CC[C@@]2(C)[C@@H](CC[C@@H]3[C@@H]2CC[C@]2(C)[C@@H](C(=O)C(n4cc(C#N)cn4)n4cc(C#N)cn4)CCC[C@@H]32)C1 [KH027]	0 to 20%	0 to 20%		
C[C@@]1(O)CC[C@@]2(C)[C@@H](CC[C@@H]3[C@@H]2CC[C@]2(C)[C@@H](C(=O)COc4nc5ccccc5o4)CCC[C@@H]32)C1 [KH028]	0 to 20%	0 to 20%		
Cc1cccc2c(OCC(=O)[C@H]3CCC[C@H]4[C@@H]5CC[C@H]6C[C@](C)(O)CC[C@]6(C)[C@H]5CC[C@]34C)ncnc12 [KH029]	0 to 20%	0 to 20%		
COc1nnc(OCC(=O)[C@H]2CCC[C@H]3[C@@H]4CC[C@H]5C[C@](C)(O)CC[C@]5(C)[C@H]4CC[C@]23C)n1C [KH030]	0 to 20%	0 to 20%		
Cn1nnnc1SCC(=O)[C@H]1CCC[C@H]2[C@@H]3CC[C@H]4C[C@](C)(O)CC[C@]4(C)[C@H]3CC[C@]12C [KH031]	0 to 20%	40 to 60%		
C[C@@]1(O)CC[C@@]2(C)[C@@H](CC[C@@H]3[C@@H]2CC[C@]2(C)[C@@H](C(=O)COc4ccc5ccccc5n4)CCC[C@@H]32)C1 [KH033]	0 to 20%	20 to 40%		
C[C@@]1(O)CC[C@@]2(C)[C@@H](CC[C@@H]3[C@@H]2CC[C@]2(C)[C@@H](C(=O)COc4nc[nH]n4)CCC[C@@H]32)C1 [KH034]	0 to 20%	0 to 20%		
C[C@@]1(O)CC[C@@]2(C)[C@@H](CC[C@@H]3[C@@H]2CC[C@]2(C)[C@@H](C(=O)COc4ncnc5c(F)cccc45)CCC[C@@H]32)C1 [KH035]	0 to 20%	20 to 40%		
C[C@@]1(O)CC[C@@]2(C)[C@@H](CC[C@@H]3[C@@H]2CC[C@]2(C)[C@@H](C(=O)COc4ncnc5cnc(F)cc45)CCC[C@@H]32)C1 [KH036]	0 to 20%	0 to 20%		
Cn1cnnc1SCC(=O)[C@H]1CCC[C@H]2[C@@H]3CC[C@H]4C[C@](C)(O)CC[C@]4(C)[C@H]3CC[C@]12C [KH037]	0 to 20%	0 to 20%		
C[C@@]1(O)CC[C@@]2(C)[C@@H](CC[C@@H]3[C@@H]2CC[C@]2(C)[C@@H](C(=O)COc4ccon4)CCC[C@@H]32)C1 [KH038]	0 to 20%	40 to 60%		
C[C@@]1(O)CC[C@@]2(C)[C@@H](CC[C@@H]3[C@@H]2CC[C@]2(C)[C@@H](C(=O)Cn4cc(C#N)cn4)CCC[C@@H]32)C1 [KH040]	0 to 20%	20 to 40%		
C[C@@]1(O)CC[C@@]2(C)[C@@H](CC[C@@H]3[C@@H]2CC[C@]2(C)[C@@H](C(=O)CSc4cccs4)CCC[C@@H]32)C1 [KH041]	0 to 20%	60 to 80%		
C[C@@]1(O)CC[C@@]2(C)[C@@H](CC[C@@H]3[C@@H]2CC[C@]2(C)[C@@H](C(=O)CO)CCC[C@@H]32)C1 [KH042]	0 to 20%	40 to 60%		
